One series deals with DENV-2 NGC strain. Put plainly: Plaque reduction assay (PRA) in Vero cells. Format: cell-based. As to conditions: for EC50: PRA in Vero cells, read-out: Antiviral activity EC50; for SI (selectivity index): ratio between CC50 and EC50.
Series [1] concerns the target NS3-NS5 interaction (NS3 f.l. binding to coated 6His-NS5_270–900) (Dengue virus type 2, UniProt P14340). Put plainly: ELISA-based NS3-NS5 interaction assay. Further details: species or system DENV-2. As to conditions: for IC50: read-out: In vitro activity IC50. The protocol:
Nunc Maxisorp microplates (Thermo Fisher Scientific) were coated with 400 ng/well of 6His-NS5_270–900, or GST protein as a control, in PBS for 3 h at 37 °C and then blocked with 5% (wt/v) bovine serum albumin (BSA, Merck Life Science) in PBS overnight at 4 °C. Blocked wells were incubated at room temperature (RT) for 2 h with increasing amounts of NS3 f.l. or GST–NS3_172–618. 6His-NS5_270–900-coated plates were also incubated with increasing concentration of GST, as a control. After washing with PBS containing 0.3% Tween 20 (Fisher Scientific, Waltham, MA, United States), the NS3-NS5 interaction was detected by incubating the plates with the anti-NS3 monoclonal antibody (GT2811 clone, Genetex, Irvine, CA, United States) diluted 1:6,000 in PBS + 2% (v/v) FBS (Thermo Fisher Scientific) for 1 h at RT. The unbound primary antibody was removed by further washes with PBS + 0.3% Tween 20 and the secondary goat anti-mouse HRP-conjugated antibody (GenScript Biotech) at a dilution of 1:8,000 in PBS + 2% FBS was then added. After incubation for 1 h at RT and following washes, the colorimetric substrate 3,3′,5,5′-tetramethylbenzidine (TMB, SeraCare Life Sciences, Milford, MA, United States) was added to each well and absorbance was read at 450 nm by an ELISA plate reader (Tecan Infinite 200 PRO, Mannedorf, Switzerland).
To test the inhibitory effect of compounds on NS3-NS5 interaction, 6His-NS5_270–900-coated wells were incubated with a fixed amount of NS3 f.l. (200 ng) along with increasing concentrations of test compounds or DMSO as a control. To exclude non-specific inhibition of compounds due to colloidal aggregation, the inhibitory activities of compounds were tested in the presence or the absence of 0.002% Triton X-100 (Fisher Scientific), a condition which reverses and prevents the colloidal formation of organic molecules ([McGovern et al., 2003]). All the compound concentrations were tested at least in duplicate.

The test system of a further series is DENV-3 (H-87 strain). Put plainly: Viral RNA reduction assay (RT-qPCR) in Vero cells. The class given is cell-based. As to conditions: DENV-3, Vero cells, RT-qPCR at 72 h p.i. The protocol:
(§1) For viral RNA reduction assays with DENV serotypes 1 to 4, Vero cells were seeded at a density of 1 × 10^5 cells per well in 24-well plates. The next day, cells were infected at 37 °C with the different viruses in serum-free DMEM at the multiplicity of infection (MOI) of 0.001 and plates were rocked every 15 min. At the end of incubation, the viral inoculum was removed, and medium with 2% FBS containing various concentrations of test compounds was added. Viral RNA was isolated from the culture supernatant at 72 h p.i., using the PureLink Viral RNA/DNA Mini kit (Invitrogen, Waltham, MA, United States), according to the manufacturer’s instructions. Viral RNA was quantified using the One-Step RT-PCR kit Dengue Virus subtypes 1, 2, 3 and 4 PCRmax (Cole Parmer Instrument, Saint Neots, United Kingdom), according to the manufacturer’s instructions, on a 7,000 Real-time PCR platform (Applied Biosystems, Waltham, MA, United States).
Background: Real-time PCR tracks product formation cycle by cycle.

The next series relates to DENV-4 (H-241 strain). Put plainly: Viral RNA reduction assay (RT-qPCR) in Vero cells. The class given is cell-based. As to conditions: DENV-4, Vero cells, RT-qPCR at 72 h p.i. The protocol:
as §1

The subject of another series is DENV-1 (TH-Sman strain). Put plainly: Viral RNA reduction assay (RT-qPCR) in Vero cells. Format: cell-based. As to conditions: DENV-1, Vero cells, RT-qPCR at 72 h p.i. How it is done: as §1
Another series has as its system DENV-2 (NGC strain). Put plainly: Viral RNA reduction assay (RT-qPCR) in Vero cells. Format: cell-based. As to conditions: DENV-2, Vero cells, RT-qPCR at 72 h p.i. How it is done: as §1
Another series has as its target SARS-CoV-2 M^pro (Severe acute respiratory syndrome coronavirus 2, UniProt P0DTD1). The settings on record: MST binding check, up to 125 μM compound concentration.
In series [2] the target is NS5-RdRp (NHS-NS5_270–900) (Dengue virus type 2, UniProt P14340). Put plainly: Microscale thermophoresis (MST) binding to labeled NS5-RdRp. Further details: species or system DENV-2. The settings on record: medium MST power, 40% LED power. The source says: (§2) To obtain the purified helicase portion of NS3 (6His-NS3_177–618) and the main protease of SARS-CoV-2 (6His-M^pro) used for the MST analysis, we followed previously described protocols ([Celegato et al., 2023]; [Mercorelli et al., 2022]). The 6His–NS5 RdRp270–900 protein was expressed and purified as described above. For MST studies, 6His-NS5_270–900, 6His-NS3_177–618, and 6His-M^pro were fluorescently labeled using NanoTemper Protein labeling kit RED-NHS 2nd generation (MO-L011, NanoTemper Technologies GmbH, Munich, Germany). Protein and dye concentrations were determined by absorption spectroscopy using NanoDrop™ One spectrophotometer (ThermoFisher Scientific), considering, at 280 nm, ε = 171,350 M^–1cm^1 for recombinant NS5, ε = 66,140 M^–1cm^1 for NS3, ε = 32,890 M^–1cm^1 for M^pro, respectively. The ε = 195,000 M^1cm^1 at 650 nm was considered for the RED-NHS fluorophore, with a correction factor of 0.04. The degree of labeling (DOL) was calculated according to the manufacturer’s instructions, yielding a value of 0.63 for NHS-NS5, 0.98 for NHS-NS3, and 0.60 for NHS-M^pro, respectively. […] In all experiments, signal quality was monitored by the Monolith device to detect possible ligand auto-fluorescence, aggregation, or target protein adsorption to capillaries. Experiments were performed in triplicates and analyzed with the MO. […]

The test system of the next series is Vero cells. Put plainly: MTT cytotoxicity assay. The settings on record: read-out: Cytotoxicity CC50; best analogues of hit 3, in-house synthesized hit 3 as control; MTT in Vero cells at 72 h. (Tetrazolium dyes change colour on reduction, which living cells bring about.)
A short description of a further series: MTT cytotoxicity assay. The settings on record: African green monkey, Vero cells.
For series [3], the target named is NS3-hel (NHS-NS3_177–618) (Dengue virus type 2, UniProt P14340). Put plainly: Microscale thermophoresis (MST) binding to labeled NS3-hel. As to conditions: same test concentrations (serial dilutions from 250 μM), 60% LED power. Further details: species or system DENV-2.
Description: as §2
(In general: MST reads how a fluorescent partner responds to local heating, with and without ligand.)

The structures appear in SMILES notation. Entries after “also recorded” stand apart in the source; their conditions may differ. Like-named read-outs stand apart in the source and are kept apart here.

Consider `Cc1ccc(NC(=S)NNC(=O)c2ccccc2O)cc1` [Hit 3], for which the concentration for a half-maximal effect (EC50) in the series on DENV-2 NGC strain (Dengue virus, DENV2, Vero, best analogues of hit 3, in-house synthesized hit 3 as control, NGC strain) was found to be 1.8 ± 0.6 µM; in the series on DENV-2 NGC strain (Dengue virus, DENV2, Vero, selected hits, 50% inhibition of viral plaque formation, DENV-2) it was 1.93 µM; with DENV-2 NGC strain (selected hits, 50% inhibition of viral plaque formation, DENV-2) it was 1.9 ± 0.3 µM. The “SI (selectivity index)” value with DENV-2 NGC strain (best analogues of hit 3) and in the series with DENV-2 NGC strain (selected hits) was >130 each time. In addition, the IC50 in [1] (analogues of hit 3, in-house synthesized hit 3 as control, 50% inhibition of NS3-NS5 binding in ELISA) was 19.4 ± 7.8 µM; in series [1] (selected hits, concentration that decreased the NS3-NS5 binding by 50% in ELISA), 15.6 ± 4.5 µM. Further, the inhibition at 100 µM in [1] (fixed concentration of 100 μM, compared with DMSO control) is ≥ 50%. The “viral RNA synthesis” value with DENV-3 (H-87 strain), in the series with DENV-4 (H-241 strain), in the series with DENV-1 (TH-Sman strain) and with DENV-2 (NGC strain) was “concentration-dependent reduction in viral RNA synthesis” each time. Besides, the “binding to SARS-CoV-2 M^pro” value at SARS-CoV-2 M^pro is “No binding was detected”. The compound further had a Kd in series [2] of 28.8 ± 4.5 µM. Moreover, the half-maximal cytotoxic concentration (CC50) in the series with Vero cells was > 250 µM. Also, the CC50 at 72 h in the series “MTT cytotoxicity assay” is > 250 µM. For the same compound, the “binding to NS3-hel” value in series [3] is on record as “not able to detect the binding; also recorded: no binding was observed”.

One may read the EC50 as the concentration giving half of the maximal effect. As usually defined, the IC50 is the midpoint of a concentration-inhibition curve. Broadly, the inhibition is the change of the read-out against control, counted positive when it falls. Read a low inhibition as a weak effect. The term Kd denotes the constant that tells how readily two partners part at equilibrium. A low value points to a tighter complex. The CC50 is the concentration giving 50% cytotoxicity.

For the origin of these results see PMC12615485, “New dengue virus inhibitors targeting NS3-NS5 interaction identified by in silico screening” (Frontiers in Microbiology, 2025).
